Assay [1] concerns BRCA2-deficient PEO1 ovarian cancer cells. Particulars: 3 days after treatment; 3 nM doxorubicin, 10 μM 3E10.
Assay [2] concerns BRCA2-proficient PEO1 C4-2 ovarian cancer cells. The conditions noted are these: 3 days after treatment; 3 nM doxorubicin, 10 μM 3E10.

Regarding `COc1cccc2c1C(=O)c1c(O)c3c(c(O)c1C2=O)C[C@@](O)(C(=O)CO)C[C@@H]3O[C@H]1C[C@H](N)[C@H](O)[C@H](C)O1` [doxorubicin], the “cell death, BRCA2-deficient cells” value in assay [1] was “not significantly toxic”. The “cell death, BRCA2-proficient cells” value in assay [2] was “not significantly toxic”.

Source of the values: US10961301B2, “Cell-penetrating anti-DNA antibodies and uses thereof inhibit DNA repair” (Yale University, priority 2011, dated 2021).
